What all share (type): cell-based
Test [1] concerns the target T1, GAVE10 (Homo sapiens, UniProt Q8TDU6).
T1 construct: expressed in transfected cells; host or cells: PSC cells
T1 sequence (Q8TDU6 1-330): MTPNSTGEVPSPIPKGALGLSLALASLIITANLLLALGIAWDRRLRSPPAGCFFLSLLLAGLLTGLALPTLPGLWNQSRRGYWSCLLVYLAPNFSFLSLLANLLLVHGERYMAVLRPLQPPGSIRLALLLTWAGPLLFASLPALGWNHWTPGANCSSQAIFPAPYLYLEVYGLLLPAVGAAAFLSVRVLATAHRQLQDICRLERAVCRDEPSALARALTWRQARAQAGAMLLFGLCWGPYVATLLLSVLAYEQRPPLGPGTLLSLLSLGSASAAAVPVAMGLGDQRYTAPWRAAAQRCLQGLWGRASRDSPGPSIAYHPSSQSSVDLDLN
Description: FLIPR assay, PSC cells transfected with GAVE10 (calcium signaling). The following applies: PSC cells alone vs PSC cells transfected with GAVE10; FIG. 1. The protocol: Compounds A, B, and C and lithocholic acid (LCA) were incubated, respectively, with PSC cells alone and PSC cells transfected with GAVE10, and the cells were then assayed in a FLIPR® assay.
To screen for agonists of human GAVE10, hGAVE10 was coupled artificially to a Gq mechanism. Activation of the Gq mechanism stimulates the release of Ca^2+ from sarcoplasmic reticulum vesicles within the cell. The Ca^2+ was released into the cytoplasm where it can be detected using Ca^2+ chelating dyes. A Fluorometric Imaging Plate Reader (i.e., a FLIPR® apparatus, Molecular Devices) was used to monitor any resulting changes in fluorescence. The activity of an agonist was reflected by any increase in fluorescence.
CHO-KI cells expressing hGAVE10 were pre-engineered to express an indiscriminate form of Gq protein (G016). To prepare such cells, Gα16-coupled CHO cells were obtained commercially (Molecular Devices LIVEWARE™ cells, Catalog No. RD-HGAI6) and the protocol in Example 2 followed to facilitate expression of hGAVE10 in those cells. The cells were maintained in log phase of growth at 37° C. and 5% CO2 in F12 Ham's media (Gibco/BRL, Catalog No. 11765-054) containing 10% fetal bovine serum, 100 IU/ml penicillin (Gibco/BRL, Catalog No. 15140-148), 100 μg/ml streptomycin (Catalog No. 15140-148, Gibco/BRL), 400 μg/ml genetecin (G418) (Gibco/BRL, Catalog No. 10131-035) and 200 μg/ml zeocin (Invitrogen, Catalog No. R250-05). […]
The CCD camera (Princeton Instruments) of the FLIPR® II (Molecular Devices) instrument was set at an f-stop of 2.0 and an exposure of 0.4 seconds. […] Changes in fluorescence were measured for 10 seconds prior to compound addition. After the addition of the compound, fluorescence was measured every second for the first minute followed by exposures taken every six seconds for a total experimental analysis time of three minutes. […] The maximum fluorescence changes for the first 80 scans were recorded as a measure of agonist activity and compared to the maximum fluorescence change induced by 10 μM ATP (Sigma A9062).

The target in test [2] is T1, GAVE10. The test can be described thus: cAMP assay, PSC cells transfected with GAVE10. The following applies: PSC cells alone vs PSC cells transfected with GAVE10; FIG. 2. Here is the method:
Compounds A, B, and C and LCA were incubated, respectively, with PSC cells alone and PSC cells transfected with GAVE 10, and the cells were then assayed in a cAMP assay.

The test system of test [3] is TNFα release in mouse macrophages. The test can be described thus: TNFα release assay in mouse macrophages. The settings on record: FIG. 3.
In test [4] the test system is IL-6 production in mouse macrophages. Description: IL-6 production in mouse macrophages. The settings on record: male and female, effect more pronounced in male, FIG. 4.

SMILES strings stand for the structures.

`CC(CCC(=O)N1CCN(C)CC1)C1CCC2C3CCC4CC(O)CCC4(C)C3CC(O)C12C` (stereo not drawn) [Compound B]: the “activation of calcium-signaling pathways via GAVE10 (FLIPR)” value on GAVE10 [1] is on record as “bind to GAVE10 to activate calcium-signaling pathways”. The “increase of intracellular cAMP via GAVE10 activation” value on GAVE10 [2] is recorded as “activate GAVE10 to increase intracellular cAMP”. The “inhibition of TNFα release” value in test [3] is listed as “inhibited TNFα release”.
The matching figures for `CC(CCC(=O)NCC[N+](C)(C)C)C1CCC2C3CCC4CC(O)CCC4(C)C3CC(O)C12C` (stereo not drawn) [Compound A]: “bind to GAVE10 to activate calcium-signaling pathways”, “activate GAVE10 to increase intracellular cAMP” and “inhibited TNFα release”.
Turning to `CC(CCC(=O)NCCN1CCOCC1)C1CCC2C3CCC4CC(O)CCC4(C)C3CC(O)C12C` (stereo not drawn) [Compound C], the “activation of calcium-signaling pathways via GAVE10 (FLIPR)” value at GAVE10 [1] was “bind to GAVE10 to activate calcium-signaling pathways”. In addition, at GAVE10 [2], the “increase of intracellular cAMP via GAVE10 activation” value is recorded as “activate GAVE10 to increase intracellular cAMP”.
On to `C[C@H](CCC(=O)O)[C@H]1CC[C@H]2[C@@H]3CC[C@@H]4C[C@H](O)CC[C@]4(C)[C@H]3C[C@H](O)[C@]12C` [DCA], for which the “inhibition of IL-6 production” value in test [4] is listed as “inhibit IL-6 production”.

For the origin of these results see US20060111331A1, “Gave10 agonists for treating inflammation” (Aventis Pharmaceuticals Inc., priority 2004, published 2006).
